Where two headings read alike, the source gives them in different places. Non-standard residues stand in square brackets, D forms with d. Residues, ends and D or L forms follow the SMILES beside them. Groups on a side chain read outwards from the residue. *: point of attachment. 2Nal = N[C@@H](Cc1ccc2ccccc2c1)C(=O)O; dNMeOrn = CN[C@H](CCCN)C(=O)O; 4Abz = Nc1ccc(C(=O)O)cc1; X1 = NCCNCC(CNCCN)C(=O)*; dDap = NC[C@@H](N)C(=O)O
Experiments:
[1] = tested on: CXCR4-expressing Chem_1 cells; assay: Determination of internalization, dual tracer with 125I-Fc-131; type: cell-based; conditions: for Cell-bound [%] / Internalized [%]: of total cellular activity
In short: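 Chem_1 cells grown in DMEM-F12 with 10% FBS at 37 °C; wells (n=3 per time point) received medium or AMD3100 (1 mM stock) to block receptors. Unbound, surface-bound and NaOH-lysed internalized fractions were γ-counted; data corrected for non-specific internalization and referred to standard ligand specific internalization.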

[2] = Octanol/PBS partition coefficient (logD7.4); type: physicochemical; conditions: n-octanol/PBS pH 7.4, radiolabeled compound
Procedure: The tubes were vortexed at maximum speed for 3 min to ensure equilibrium before centrifugation at 15.000×g for 5 min on a Biofuge 15 from Heraeus Holding GmbH (Osterode, Germany). An aliquot of 100 μL of each fraction was measured in the γ-counter and the log D7.4 calculated as follows: […]

[3] = tested on: Raji cells
Procedure: (§1) Two cell lines were selected for the respective experiments. The B-cell lymphoma cell line U2932 and the higher CXCR4 expressing lymphoblast-like Raji cell line. Both cell lines were incubated with the PDC for 24, 48, 72 and 96 hours in varying concentrations of 0 (Blank), 10, 20, 40 and 100 nM.

[4] = tested on: U2932 cells; conditions: 10, 20, 40, 100 nM, 24-96 h
Procedure: as §1

[5] = tested on: U2932 cells; conditions: 72 h, increasing amounts of PDC
Procedure: For that purpose, cells were fixed, permeabilized and treated with propidium iodide. The number of cells in the G0/G1-, S— and G2/M-phase was then measured with regards to the amount of PDC used.

[6] = biological target: T1, CXCR4 (Homo sapiens, UniProt P61073); assay: Determination of IC50: competition with 125I-Fc-131 on CXCR4-positive Jurkat cells; type: binding; set-up: CXCR4-positive Jurkat T lymphocyte cells were grown in Gibco's RPMI 1640 GlutaMAX medium; endogenous in cells; host or cells: Jurkat T lymphocyte cells (whole cells in suspension, 400.000 per tube);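 further: test compound at 10^−5 to 10^−11 M competed for 2 h at 8 °C with the radioligand on 400,000 cells per well, bound versus free activity measured by γ-counting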
T1 sequence (P61073 whole entry): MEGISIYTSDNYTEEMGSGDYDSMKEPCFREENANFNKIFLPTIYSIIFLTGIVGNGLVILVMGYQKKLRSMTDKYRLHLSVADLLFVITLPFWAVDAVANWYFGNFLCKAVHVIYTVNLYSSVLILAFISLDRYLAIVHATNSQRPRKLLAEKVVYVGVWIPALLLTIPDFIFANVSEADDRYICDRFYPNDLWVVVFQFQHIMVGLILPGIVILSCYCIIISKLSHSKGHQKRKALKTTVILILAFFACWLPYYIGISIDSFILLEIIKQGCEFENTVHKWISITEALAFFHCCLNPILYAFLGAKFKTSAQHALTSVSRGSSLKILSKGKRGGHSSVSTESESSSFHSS
Procedure: For in vitro experiments, cells were counted in a hemocytometer using trypan blue as contrast agent. The cell suspension was centrifuged, and the pellet resuspended in HBSS (+1 wt % BSA) to a concentration of 2 mio cells/mL. […] 200 μL of cell suspension (400.000 cells per well) were added to obtain a final peptide concentration range of 10^−5-10^−11 M. The tubes were cooled for 2 h at 8° C. to prevent internalization. The experiment was stopped by removal of the supernatant. 200 μL HBSS were added onto the cells, the suspension centrifuged, and the supernatant pooled with the respective first fractions. This step was repeated once more before the tubes containing the supernatants and the ones containing the cell pellets were subjected to activity measurement in the γ-counter.

[7] = Biodistribution in Jurkat tumor-bearing CB-17 SCID mice; type: in vivo; conditions: female, CB-17 SCID, mouse, in vivo, iv, total radioactivity, 1 h p.i., Jurkat xenograft, CB-17 SCID female mice
In short: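 CB17-SCID mice bore subcutaneous Jurkat xenografts (2-3×10^7 cells in Matrigel, shoulder), used at 5-8 mm tumor diameter. About 0.5-20 MBq (0.02-0.20 nmol) of 125I-, 177Lu-, 99mTc-, 18F- or 68Ga-labeled ligand given by tail vein; organs weighed and γ-counted after set times.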

[8] = Procedure: The radiosynthesis of [^99mTc]CXCR4-Tc-14 was performed manually, as described in chapter 4.2.3 above. Images were acquired after injection of 430-604 MBq of [^99mTc]CXCR4-Tc-14 at 5 min to 21 h p.i. Details of the scanning procedure are set out below.
Clinical evaluation of [^99mTc]CXCR4-Tc-14 in patients was conducted under compassionate use in compliance with the German Medicinal Products Act, AMG § 13 2b, and in accordance with the responsible authorities (Government of Oberbayern). First proof-of-concept studies were performed at the Universitätsklinikum Augsburg (Augsburg, Germany).
All subjects were examined on a Discovery MN CT 670 Pro equipped with an Optima 540 CT (GE Healthcare, Solingen, Germany). Full-body SPECT/CT scans at 5 and 60 min after tracer injection were acquired with a scanning speed of 30 cm/min, scans at 120 and 300 min were acquired with a scanning speed of 12 cm/min and scans at 21 h were acquired with a scanning speed of 5 cm/min. The scans were obtained in 60 subsets using the double-head technology in matrices of 128×128 (zoom 1). SPECT scans at 60 and 180 min after tracer injection were acquired with an exposure time of 8 sec per subset and scans at 21 h were acquired with an exposure time of 16 sec per subset. Emission data were smoothed applying a Butterworthfilter (0.48) and reconstructed iteratively by an ordered-subsets expectation maximization algorithm (2 iterations, 10 subsets). Images were obtained after injection of 430-604 MBq of [^99mTc]CXCR4-Tc-14 at 5 min to 21 h p.i.
The specific and effective doses in selected organs were analyzed. For calculation of the doses, voxels of interest were defined around areas with increased uptake in full-body images. Time-activity curves for the respective organs were automatically determined and the residence time of the tracer calculated using the specific calibration of the SPECT camera and a standard activity value. The residence time was used as the input data for the Olinda/EXM software. The output of this calculation was referred to the dosimetry guideline of the International Commission on Radiological Protection.

[9] = biological target: T1, CXCR4; assay: Determination of inverse IC50 (invIC50): radiolabeled peptide displaced by Fc-131 on Jurkat cells; conditions: read-out: invIC50; radiolabeled compound displaced by Fc-131, Jurkat cells
Procedure: For in vitro experiments, cells were counted in a hemocytometer using trypan blue as contrast agent. The cell suspension was centrifuged, and the pellet resuspended in HBSS (+1 wt % BSA) to a concentration of 2 mio cells/mL. 8×3 polystyrene tubes were loaded with 25 μL of the standard ligand ^125I-Fc-131 (see 4.1, 1.00 nM in HBSS) and 25 μL of the ligand to investigate in the respective concentration (10^−4-10^−10 M, n=3 for each concentration). 200 μL of cell suspension (400.000 cells per well) were added to obtain a final peptide concentration range of 10^−5-10^−11 M. The tubes were cooled for 2 h at 8° C. to prevent internalization. The experiment was stopped by removal of the supernatant. 200 μL HBSS were added onto the cells, the suspension centrifuged, and the supernatant pooled with the respective first fractions. This step was repeated once more before the tubes containing the supernatants and the ones containing the cell pellets were subjected to activity measurement in the γ-counter.
For the determination of inverse IC50 (invIC50) values the protocol for the determination of regular IC50 values was resumed with minor changes. The peptide under investigation was radioactively labeled and a stock solution was prepared in HBSS (2.00 nM). A concentration gradient of the standard ligand Fc-131 was prepared in HBSS (10^−4-10^−10 M). A cell tube was then containing 25 μL of the radioactive peptide solution, 25 μL of the respective Fc-131 solution and 200 μL cell suspension (400.000 cells). The experiment was conducted as described above.

[10] = patient, multiple myeloma, 604 MBq

SMILES: CC[C@H](C)[C@@H]([C@@H](CC(=O)N1CCC[C@H]1[C@H](OC)[C@@H](C)C(=O)N[C@H](C)C(O)c1ccccc1)OC)N(C)C(=O)[C@@H](NC(=O)[C@H](C(C)C)N(C)C(=O)OCc1ccc(NC(=O)[C@H](CCCNC(N)=O)NC(=O)[C@@H](NC(=O)CCCCCN2C(=O)CC(SCC[C@@H](N)C(=O)NC(CCCNC(=N)N)C(=O)N[C@H](C)C(=O)Nc3ccc(C(=O)NCCC[C@@H]4C(=O)N[C@@H](CCCNC(=N)N)C(=O)N[C@H](Cc5ccc6ccccc6c5)C(=O)NCC(=O)N[C@@H](Cc5ccc(O)cc5)C(=O)N4C)cc3)C2=O)C(C)C)cc1)C(C)C (stereo partly drawn) [CXCR4-MMAE-2]
- Internalization 2 h [% of bound peptide] ([1]; 2 h, 125I-labeled): 27.9 ± 1.14 % of bound peptide
- logD7.4 [2]: 1.11 ± 0.08 (5)
- fraction of dead cells ([3]; 96 h, 10, 20 and 40 nM, Raji vs U2932): considerably higher fraction of dead Raji cells compared to the U2932 cells
- cell viability ([3]; Raji cells, 10, 20, 40, 100 nM, 24-96 h): decreased cell viabilities
- cell viability [4]: decreased cell viabilities
- cells in G2/M-phase [5]: higher number of cells stuck in the G2/M-phase
- IC50 [6]: 42.6 ± 8.3 nM

SMILES: C[C@@H](NC(=O)[C@@H](CCCNC(=N)N)NC(=O)[C@@H](CN)NC(=O)C(CNCCN)CNCCN)C(=O)Nc1ccc(C(=O)NCCC[C@@H]2C(=O)N[C@@H](CCCNC(=N)N)C(=O)N[C@@H](Cc3ccc4ccccc4c3)C(=O)NCC(=O)N[C@H](Cc3ccc(O)cc3)C(=O)N2C)cc1 [Tc-CXCR4-14] (cyclo([dY][dNMeOrn]([4Abz-dA-dR-dDap-X1])R[2Nal]G))
- Internalized in relation to 125I-Fc-131 [%] ([1]; 10 min): 486 ± 18.9%
- Cell-bound [%] ([1]; 10 min): 0.67 ± 0.14%
- Internalized [%] ([1]; 10 min): 17.9 ± 0.59%
- Internalized in relation to 125I-Fc-131 [%] ([1]; 30 min): 683 ± 51.3%
- Cell-bound [%] ([1]; 30 min): 1.56 ± 0.41%
- Internalized [%] ([1]; 30 min): 30.2 ± 0.74%
- Internalized in relation to 125I-Fc-131 [%] ([1]; 60 min): 742 ± 45.2%
- Cell-bound [%] ([1]; 60 min): 0.91 ± 0.14%
- Internalized [%] ([1]; 60 min): 36.4 ± 0.20%
- Internalization [% Fc-131] ([1]; 120 min): 666 (120 min) % Fc-131
- Internalized in relation to 125I-Fc-131 [%] ([1]; 120 min): 694 ± 42.5%
- Cell-bound [%] ([1]; 120 min): 1.11 ± 0.48%
- Internalized [%] ([1]; 120 min): 37.9 ± 0.56%
- Internalization (in % of 125I-FC-131) ([1]; time not given): 742%
- logD7.4 ([2]; listed as [^99mTc]CXCR4-Tc-14): −1.75
- tissue uptake at 1 h ([7]; Blood, read-out: % iD/g Blood): 1.62 %ID/g
- tissue uptake at 1 h ([7]; Bone, read-out: % iD/g Bone): 1.31 %ID/g
- tissue uptake at 1 h ([7]; Heart, read-out: % iD/g Heart): 1.21 %ID/g
- tissue uptake at 1 h ([7]; Intestine, read-out: % iD/g Intestine): 0.92 %ID/g
- tissue uptake at 1 h ([7]; Liver, read-out: % iD/g Liver): 7.67 %ID/g
- tissue uptake at 1 h ([7]; Lung, read-out: % iD/g Lung): 3.99 %ID/g
- tissue uptake at 1 h ([7]; Pancreas, read-out: % iD/g Pancreas): 0.56 %ID/g
- tissue uptake at 1 h ([7]; Stomach, read-out: % iD/g Stomach): 1.97 %ID/g
- tissue uptake at 1 h ([7]; Tumor, read-out: % iD/g Tumor): 8.63 %ID/g
- delivered whole-body dose ([8]; 604 MBq injected): 3.8 mSv
- whole-body effective dose ([8]; patient, multiple myeloma): 6.3 μSv/MBq
- specific dose, kidneys [8, 10]: 10 μGy/MBq
- specific dose, liver [8, 10]: 14 μGy/MBq
- specific dose, osteogenic cells [8, 10]: 13 μGy/MBq
- specific dose, red bone marrow [8, 10]: 11 μGy/MBq
- specific dose, spleen [8, 10]: 47 μGy/MBq
- IC50 [9]: 10.2 nM

From patent publication US20250288704A1, “CXCR4-LIGANDS FOR DIAGNOSTIC AND THERAPEUTIC USE AND PRECURSORS THEREOF” (priority 2021, published 2025)
